# Experimental data published in ChEMBL document CHEMBL4382266, “Melonoside B and Melonosins A and B, Lipids Containing Multifunctionalized ω-Hydroxy Fatty Acid Amides from the Far Eastern Marine Sponge Melonanchora kobjakovae” (J Nat Prod, 2018).
# Calls of active or inactive are those of the source. The calls are words filed in the database; no cut-off is given here.
# How the values were obtained:
# Type in all cases: cell-based
# [1] = molecular target: Cellular tumor antigen p53 (Homo sapiens) (UniProt P04637); experiment: Inhibition of p53 (unknown origin) expressed in mouse JB6 Cl41 cells after 24 hrs by luciferase reporter gene assay
# Sequence of Cellular tumor antigen p53 (Homo sapiens) (P04637 whole entry, looked up): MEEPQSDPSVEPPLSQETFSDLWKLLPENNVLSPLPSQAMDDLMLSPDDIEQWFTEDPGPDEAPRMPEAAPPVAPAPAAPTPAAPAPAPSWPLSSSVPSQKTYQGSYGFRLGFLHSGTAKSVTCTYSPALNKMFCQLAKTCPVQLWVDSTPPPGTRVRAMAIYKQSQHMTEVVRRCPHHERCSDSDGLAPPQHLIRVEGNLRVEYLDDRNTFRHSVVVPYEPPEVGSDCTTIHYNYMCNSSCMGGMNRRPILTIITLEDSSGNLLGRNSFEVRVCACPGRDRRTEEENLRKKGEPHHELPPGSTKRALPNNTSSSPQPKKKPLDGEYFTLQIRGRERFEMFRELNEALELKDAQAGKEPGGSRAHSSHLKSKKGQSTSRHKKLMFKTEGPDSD
# [2] = Cytotoxicity against mouse JB6 Cl41 cells after 24 hrs assessed as reduction in cell viability at 25 to 37 uM by MTS assay
# [3] = molecular target: Transcription factor Jun (Homo sapiens) (UniProt P05412); experiment: Inhibition of AP-1 (unknown origin) expressed in mouse JB6 Cl41 cells at 25 uM after 24 hrs by luciferase reporter gene assay relative to control
# Sequence of Transcription factor Jun (Homo sapiens) (P05412 whole entry): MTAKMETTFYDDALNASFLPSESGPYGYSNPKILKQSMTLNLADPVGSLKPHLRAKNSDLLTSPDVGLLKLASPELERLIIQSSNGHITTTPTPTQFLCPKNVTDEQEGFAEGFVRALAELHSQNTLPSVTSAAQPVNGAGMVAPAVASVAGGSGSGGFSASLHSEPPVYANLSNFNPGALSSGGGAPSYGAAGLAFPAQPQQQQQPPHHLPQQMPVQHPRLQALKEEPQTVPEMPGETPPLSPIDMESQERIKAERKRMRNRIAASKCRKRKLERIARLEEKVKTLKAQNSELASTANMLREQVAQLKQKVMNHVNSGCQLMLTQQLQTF
# Homo sapiens [4] = organism: Homo sapiens; experiment: Inhibition of NFkB (unknown origin) expressed in mouse JB6 Cl41 cells at 25 uM after 24 hrs by luciferase reporter gene assay relative to control
# [5] = molecular target: Transcription factor Jun (Homo sapiens) (UniProt P05412); experiment: Inhibition of AP-1 (unknown origin) expressed in mouse JB6 Cl41 cells after 24 hrs by luciferase reporter gene assay
# Homo sapiens [6] = organism: Homo sapiens; experiment: (§1) Inhibition of NFkB (unknown origin) expressed in mouse JB6 Cl41 cells after 24 hrs by luciferase reporter gene assay
# [7] = as §1; conditions: Homo sapiens, JB6 Cl41, 24 h
# [8] = Cytotoxicity against mouse JB6 Cl41 cells after 24 hrs assessed as reduction in cell viability at 6 to 12 uM by MTS assay
SMILES,inhibition [1],Activity [2],inhibition [3] [%],inhibition (Homo sapiens [4]) [%],inhibition [5],inhibition (Homo sapiens [6]),IC50 [7] [µM],Activity [8]
CO[C@@H](CC/C=C\CCCCC(=O)CCCCC(=O)CCCCCCCCCCO)C(=O)NCCc1ccc(O)cc1,inactive,Non-Toxic,87,67,,,,
CO[C@@H](CC/C=C\CCCCC(=O)CCCCCCC(=O)CC/C=C\CCCCCCO[C@@H]1O[C@H](C(=O)O)[C@@H](O)[C@H](O)[C@H]1O)C(=O)NCCc1ccc(O)cc1,inactive,,,,inactive,inactive,,
CO[C@@H](CC/C=C\CCCCC(=O)CCCCC(=O)CCCCCCCCCCO[C@@H]1O[C@H](C(=O)O)[C@@H](O)[C@H](O)[C@H]1O)C(=O)NCCc1ccc(O)cc1,inactive,,,,inactive,inactive,,
CO[C@@H](CC/C=C\CCCCC(=O)CCCCCCC(=O)CC/C=C\CCCCCCO)C(=O)NCCc1ccc(O)cc1,inactive,,,,,,7.2,Non-Toxic
